Measurements reported in the supplement of paper PMC10307832.

Assays:
Assay in all cases: relative viability (nuclei count vs DMSO), 5 days (fraction); higher = more cells survive
NCI-H1793 = system: NCI-H1793
Procedure, shortened: (§1)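 Nuclei were stained with Hoechst during a one-step fixation (final 0.05% Triton X-100, 1% formaldehyde, 1 ug/ml Hoechst) carried out 5 days after dosing, then counted on 4× images. The cells, lung cancer lines in 1536-well plates, had been dosed by pin tool the day after seeding with one drug alone or a fixed anchor-drug dose plus five library-drug doses (not always all listed) in √10 steps. Relative viability is the nuclei count in treated wells divided by that in vehicle wells, and each value is the median of duplicate plates.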

NCI-H1944 = system: NCI-H1944
Procedure, shortened: as §1

NCI-H1993 = system: NCI-H1993
Procedure, shortened: as §1

NCI-H2023 = system: NCI-H2023
Procedure, shortened: as §1

NCI-H2126 = system: NCI-H2126
Procedure, shortened: as §1

NCI-H2228 = system: NCI-H2228
Procedure, shortened: as §1

NCI-H23 = system: NCI-H23
Procedure, shortened: as §1

NCI-H2405 = system: NCI-H2405
Procedure, shortened: as §1

NCI-H358 = system: NCI-H358
Procedure, shortened: as §1

NCI-H838 = system: NCI-H838
Procedure, shortened: as §1

SK-LU-1 = system: SK-LU-1
Procedure, shortened: as §1

## CCN(CC)CCCCNc1ncc2cc(-c3cc(OC)cc(OC)c3)c(NC(=O)NC(C)(C)C)nc2n1 + CC(=O)c1c(C)c2cnc(Nc3ccc(N4CCNCC4)cn3)nc2n(C2CCCC2)c1=O [Palbociclib] (partner 0.5 µM)
NCI-H1793; first compound 0.03162 µM
  relative viability: 0.295
NCI-H1793; first compound 0.1 µM
  relative viability: 0.403
NCI-H1793; first compound 0.3162 µM
  relative viability: 0.277
NCI-H1793; first compound 1 µM
  relative viability: 0.269
NCI-H1944; first compound 0.01 µM
  relative viability: 0.35
NCI-H1944; first compound 0.03162 µM
  relative viability: 0.345
NCI-H1944; first compound 0.1 µM
  relative viability: 0.312
NCI-H1944; first compound 0.3162 µM
  relative viability: 0.348
NCI-H1944; first compound 1 µM
  relative viability: 0.278
NCI-H1993; first compound 0.01 µM
  relative viability: 0.368
NCI-H1993; first compound 0.03162 µM
  relative viability: 0.763
NCI-H1993; first compound 0.1 µM
  relative viability: 0.791
NCI-H1993; first compound 0.3162 µM
  relative viability: 0.661
NCI-H1993; first compound 1 µM
  relative viability: 0.738
NCI-H2023; first compound 0.01 µM
  relative viability: 0.317
NCI-H2023; first compound 0.03162 µM
  relative viability: 0.32
NCI-H2023; first compound 0.1 µM
  relative viability: 0.348
NCI-H2023; first compound 0.3162 µM
  relative viability: 0.347
NCI-H2023; first compound 1 µM
  relative viability: 0.291
NCI-H2126; first compound 0.01 µM
  relative viability: 0.353
NCI-H2126; first compound 0.03162 µM
  relative viability: 0.37
NCI-H2126; first compound 0.1 µM
  relative viability: 0.399
NCI-H2126; first compound 0.3162 µM
  relative viability: 0.345
NCI-H2126; first compound 1 µM
  relative viability: 0.355
NCI-H2228; first compound 0.01 µM
  relative viability: 1.23
NCI-H2228; first compound 0.03162 µM
  relative viability: 0.561
NCI-H2228; first compound 0.1 µM
  relative viability: 0.434
NCI-H2228; first compound 0.3162 µM
  relative viability: 0.862
NCI-H2228; first compound 1 µM
  relative viability: 0.513
NCI-H23; first compound 0.01 µM
  relative viability: 0.534
NCI-H23; first compound 0.03162 µM
  relative viability: 0.451
NCI-H23; first compound 0.1 µM
  relative viability: 0.598
NCI-H23; first compound 0.3162 µM
  relative viability: 0.547
NCI-H23; first compound 1 µM
  relative viability: 0.466
NCI-H2405; first compound 0.01 µM
  relative viability: 0.567
NCI-H2405; first compound 0.03162 µM
  relative viability: 0.564
NCI-H2405; first compound 0.1 µM
  relative viability: 0.539
NCI-H2405; first compound 0.3162 µM
  relative viability: 0.534
NCI-H2405; first compound 1 µM
  relative viability: 0.52
NCI-H358; first compound 0.01 µM
  relative viability: 0.146
NCI-H358; first compound 0.03162 µM
  relative viability: 0.123
NCI-H358; first compound 0.1 µM
  relative viability: 0.159
NCI-H358; first compound 0.3162 µM
  relative viability: 0.139
NCI-H358; first compound 1 µM
  relative viability: 0.136
NCI-H838; first compound 0.01 µM
  relative viability: 0.197
NCI-H838; first compound 0.03162 µM
  relative viability: 0.223
NCI-H838; first compound 0.1 µM
  relative viability: 0.204
NCI-H838; first compound 0.3162 µM
  relative viability: 0.213
NCI-H838; first compound 1 µM
  relative viability: 0.182
SK-LU-1; first compound 0.01 µM
  relative viability: 0.457
SK-LU-1; first compound 0.03162 µM
  relative viability: 0.387
SK-LU-1; first compound 0.1 µM
  relative viability: 0.359
SK-LU-1; first compound 0.3162 µM
  relative viability: 0.434
SK-LU-1; first compound 1 µM
  relative viability: 0.309
